{"source": "patent US20060147922A1", "about": "“Novel diagnostic and therapeutic methods and reagents therefor” (priority 2002, published 2006)", "key": {"PR(CDE)": {"target": "T1, PR(CDE) (Homo sapiens, UniProt P06401)", "T1 construct": "PR(CDE) (aa 456-933) regions into pGEX4T2 for GST fusion protein expression; made in house; host or cells: GST fusion from E. coli BL21; EDDF1 / SRC-1 by coupled in vitro transcription/translation (TNT Quick, Promega)", "T1 sequence (P06401 456-933)": "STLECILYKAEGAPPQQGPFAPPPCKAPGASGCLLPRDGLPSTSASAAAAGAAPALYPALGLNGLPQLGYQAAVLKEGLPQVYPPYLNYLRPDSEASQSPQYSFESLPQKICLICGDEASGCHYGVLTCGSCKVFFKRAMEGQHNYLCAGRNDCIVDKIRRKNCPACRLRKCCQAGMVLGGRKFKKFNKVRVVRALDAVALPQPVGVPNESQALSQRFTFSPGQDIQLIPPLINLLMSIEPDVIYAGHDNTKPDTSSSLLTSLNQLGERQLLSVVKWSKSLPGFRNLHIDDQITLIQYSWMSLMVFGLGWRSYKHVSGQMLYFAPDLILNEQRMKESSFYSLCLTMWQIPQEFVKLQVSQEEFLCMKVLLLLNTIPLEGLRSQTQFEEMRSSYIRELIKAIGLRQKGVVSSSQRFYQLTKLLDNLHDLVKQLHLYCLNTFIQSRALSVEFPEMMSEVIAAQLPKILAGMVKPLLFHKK", "assay": "GST-PR(CDE) pull-down of in vitro translated EDDF1 or SRC-1", "format": "binding", "conditions": "in vitro assays (data not shown)"}, "PR B": {"target": "T2, PR B (Homo sapiens, UniProt P06401)", "T2 sequence (P06401 1-933)": "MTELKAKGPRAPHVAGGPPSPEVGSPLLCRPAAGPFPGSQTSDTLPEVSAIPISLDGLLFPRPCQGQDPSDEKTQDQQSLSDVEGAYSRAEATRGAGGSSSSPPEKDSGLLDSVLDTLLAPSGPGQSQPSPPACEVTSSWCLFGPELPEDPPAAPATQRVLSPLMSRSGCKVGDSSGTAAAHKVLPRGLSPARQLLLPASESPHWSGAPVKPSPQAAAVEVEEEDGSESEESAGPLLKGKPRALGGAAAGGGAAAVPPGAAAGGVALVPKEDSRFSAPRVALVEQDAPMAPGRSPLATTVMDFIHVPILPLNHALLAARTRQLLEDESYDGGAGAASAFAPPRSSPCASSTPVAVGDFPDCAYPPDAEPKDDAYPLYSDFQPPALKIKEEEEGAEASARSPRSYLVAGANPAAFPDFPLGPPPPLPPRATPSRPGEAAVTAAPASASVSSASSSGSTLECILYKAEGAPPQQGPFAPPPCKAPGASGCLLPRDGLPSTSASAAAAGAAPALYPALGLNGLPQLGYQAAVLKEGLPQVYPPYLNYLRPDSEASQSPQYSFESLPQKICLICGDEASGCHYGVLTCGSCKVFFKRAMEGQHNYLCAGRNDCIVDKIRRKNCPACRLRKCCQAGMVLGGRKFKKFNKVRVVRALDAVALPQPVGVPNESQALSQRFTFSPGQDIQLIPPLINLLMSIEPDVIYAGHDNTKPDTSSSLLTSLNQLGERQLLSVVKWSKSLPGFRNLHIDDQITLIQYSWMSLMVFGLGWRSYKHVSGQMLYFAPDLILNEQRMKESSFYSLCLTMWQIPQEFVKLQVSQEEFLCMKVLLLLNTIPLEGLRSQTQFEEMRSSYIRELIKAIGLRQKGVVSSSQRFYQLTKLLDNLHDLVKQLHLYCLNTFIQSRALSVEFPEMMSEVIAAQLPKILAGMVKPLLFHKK", "assay": "Nuclear receptor transactivation assay (MMTV-luciferase reporter)", "format": "cell-based", "conditions": "HEK 293 cells, 24 h", "quoted_text": "(D) Effect of EDD on response to the synthetic progestin ORG2058. HEK 293 cells were transfected for reporter assay along with a transfection control plasmid (pRL-TK). Cells were harvested for luciferase assay following 24 h treatment with increasing concentrations of ORG2058.\nHEK 293 or COS7 cells were plated in 6-well plates (2×10^5 cells/well) and the medium changed to 2% charcoal-stripped FCS the following day. Transfection was carried out using 3-4 μl Fugene 6 Reagent (Roche) with 1-2 μg DNA comprised of 90 ng receptor expression vector, 450 ng luciferase reporter vector and 1.2 μg EDD, EDDM or SRC-1 cDNAs in either pRcCMV or pSG5, or empty vector, and 200 ng GFP expression vector pGFP20. […] In some experiments cell number was monitored using the CellTiter96® Proliferation Assay (Promega Corp., Madison, USA). Cells in 6-well plates were analysed for GFP expression by fluorescence microscopy to determine transfection efficiency and also used for preparation of protein lysates so that protein expression levels of various constructs could be compared. […] In some experiments pRSV-β-gal or pRL-TK (Promega Corp., Madison, USA) vectors were transfected in place of pGFP20 and transfection efficiency monitored by assaying for β-galactosidase or Renilla luciferase activity respectively."}, "EDD-chk2 interaction": {"test_system": "EDD-chk2 interaction", "assay": "chk2 immunoprecipitation / GSTchk2-N pull-down of EDD from MCF-7 nuclear extracts after DNA damaging agents", "format": "cell-based, human", "conditions": "for amount of EDD associating with chk2: MCF-7 nuclear extracts, phleomycin 100 μg/ml or hydroxyurea 2 mM", "experimental": "Nuclear extracts from MCF-7 cells that had been cultured in the presence of the radiomimetic phleomycin (100 μg per ml) or from control MCF-7 cells were immunoprecipitated with polyclonal CHK2 antibody (N17) or incubated with goat IgG as a negative control. Following precipitation of immune complexes and extensive washing, bound proteins were separated by SDS-PAGE and western blofted for EDD or CHK2.\n(C) Nuclear extracts from MCF-7 cells that had been cultured in the presence of phleomycin (100 μg per ml) or from control MCF-7 cells were incubated with GSTCHK2-N or with GST alone bound to glutathione-Sepharose beads. Bound proteins were separated by SDS-PAGE and immunoblotted for EDD and GST.\n(§1) (B) Interactions between EDD, BRCA2 and chk2 are modified in response to DNA damaging agents. Nuclear extracts from MCF-7 cells that had been cultured in the presence of the radiomimetic phleomycin or the UV mimic hydroxyurea (HU), or from control MCF-7 cells, were subjected to immunoprecipitation with polyclonal chk2 antibody (N17). Following precipitation of immune complexes and extensive washing, bound proteins were separated by SDS-PAGE and western blotted for EDD, BRCA2 or chk2.\n(§2) MCF-7 cells were incubated in RPMI containing 0.5% foetal bovine serum for 18 h before addition of phleomycin (Cayla, France) at 100 μg/ml, hydroxyurea (Calbiochem, CA, USA) at 2 mM or PBS vehicle, for 6 h. Cells were harvested for total protein or nuclear protein extracts as described above."}, "BRCA2-chk2 interaction": {"test_system": "BRCA2-chk2 interaction", "assay": "chk2 immunoprecipitation, western blot for BRCA2, from MCF-7 nuclear extracts after DNA damaging agents", "format": "cell-based, human", "conditions": "phleomycin or hydroxyurea", "description": "as §1, §2"}, "chk2 FHA domain": {"target": "T3, chk2 FHA domain (Homo sapiens, UniProt O96017)", "T3 construct": "made in house; host or cells: GST fusion from E. coli BL21; EDDF5 by coupled in vitro transcription/translation (TNT Quick, Promega)", "T3 sequence (O96017 1-225)": "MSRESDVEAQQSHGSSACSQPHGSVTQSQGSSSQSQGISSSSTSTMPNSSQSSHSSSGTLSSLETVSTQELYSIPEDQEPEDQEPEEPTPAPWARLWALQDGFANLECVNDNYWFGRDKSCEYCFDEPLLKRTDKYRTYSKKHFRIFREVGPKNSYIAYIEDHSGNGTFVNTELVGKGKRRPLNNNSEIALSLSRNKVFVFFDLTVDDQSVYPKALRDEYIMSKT", "assay": "GSTchk2-N pull-down of in vitro translated EDD in presence of FHA-binding phosphopeptide", "conditions": "pre-incubation of GSTchk2-N fusion protein with peptide", "experimental": "(D) The phosphopeptide-binding interface of the chk2 FHA domain is required for EDD binding. In vitro translated ^35S-labelled EDD derivative EDDF5 (aa 889-2799) was incubated with GSTchk2-N or GSTchk2-N derivatives containing R117A or I157T substitutions, or with GST alone bound to glutathione-Sepharose beads. The incubations with GSTchk2-N or GSTchk2-N(I157T) were carried out in the presence or absence of an FHA-binding phosphopeptide at 0, 80 or 150 μM. Bound EDD was detected by SDS-PAGE and autoradiography.\nGST-tagged fusion proteins were prepared from E. coli strain BL21 according to established protocols (Pharmacia Protocol Handbook). Soluble fusion proteins were bound to glutathione agarose and quantitated via Coomassie blue staining against protein standards. 35S-labelled EDD protein and mutants or SRC-1 were synthesised in a coupled in vitro transcription/translation system (TNT Quick, Promega) and 10-20 μl reaction mixture was diluted in 1% Triton X-100 lysis buffer (Callaghan et al, Oncogene 17, 3479-3491, 1998) and incubated with 5 μg of GST, GST-importin α5, GST-PR(CDE) or GST-CIB coupled to glutathione agarose beads at 4° C. for 2 h. Beads were collected by centrifugation, washed extensively in lysis buffer and resuspended in SDS-PAGE sample buffer. After boiling, bound protein was visualised following SDS-PAGE and autoradiography. […]"}, "EDD-CIB interaction": {"test_system": "EDD-CIB interaction", "assay": "GST-CIB pull-down of EDD from MCF-7 nuclear extracts after DNA damaging agents", "format": "cell-based, human", "experimental": "(D) Interaction of EDD and CIB in HEK 293 and MCF-7 cells. Left, HEK 293 cells overexpressing mutant EDD were transfected with a plasmid encoding Flag-tagged CIB or empty vector (vec). Extracts from these cells were subjected to immunoprecipitation using anti-FLAG Ab M2. Right, nuclear extracts prepared from MCF-7 cells following treatment with DNA damage agents phleomycin (Phleo) or hydroxyurea (HU) were incubated with either GST or GST-CIB fusion protein bound to glutathione-Sepharose beads. Bound proteins from both procedures were analysed by SDS-PAGE and western blotted for EDD and amounts bound are indicated as percentages relative to input.\nFor GST fusion protein pull-down of endogenous or recombinant EDD from cell lysates, 0.5 to 1 mg total protein was incubated with 5 μg GST or GST fusion protein bound to glutathione beads for 1-2 h at 4° C. Beads were washed extensively in 1% Triton X-100 lysis buffer and bound proteins resolved by SDS-PAGE and detected by immunoblotting with EDD antisera (Callaghan et al, Oncogene 17, 3479-3491, 1998). For immunoprecipitation, 10 μl importin α5 antisera (Peter Palese, Mount Sinai School of Medicine) was incubated with 0.5 to 1 mg cell lysate (4° C. for 1 h). Antibody conjugates were captured on protein A sepharose beads (4° C. for 1 h) and washed extensively in lysis buffer. […]"}}, "note": "Entries after “also recorded” stand apart in the source; their conditions may differ. Where no end group is shown, it is not given here. [ ]: non-standard residue; d: D form. pT = C[C@@H](OP(=O)(O)O)[C@H](N)C(=O)O", "data": [{"molecule": "CCC1CC2C3CCC4=CC(=O)CCC4C3CCC2(C)C1C(=O)CO", "note": "(centres unmarked) [ORG2058]", "values": [{"measurement": "effect of PR ligand on interactions between PR(CDE) and SRC-1 or EDDF1", "setting": "PR(CDE)", "value": "not affected"}, {"measurement": "ORG2058 concentration at which that maximal response was exceeded", "setting": "PR B; with EDD overexpression", "value": 100, "unit": "pM"}, {"measurement": "ORG2058 concentration giving maximal response (luciferase activity)", "setting": "PR B; without EDD transfection", "value": 10, "unit": "nM"}]}, {"molecule": "NC(=O)NO", "note": "[hydroxyurea]", "values": [{"measurement": "amount of EDD associating with chk2", "setting": "EDD-chk2 interaction", "value": "no effect on the association with EDD"}, {"measurement": "amount of BRCA2 associated with chk2", "setting": "BRCA2-chk2 interaction", "value": "considerably reduced"}]}, {"molecule": "RWFDT(P)YLIRR: phosphopeptide that binds strongly to the FHA domain (RWFD[pT]YLIRR)", "values": [{"measurement": "peptide concentration that abolished binding between EDD and chk2-N", "setting": "chk2 FHA domain", "value": "greater than 50 μM"}]}, {"molecule": "phleomycin", "values": [{"measurement": "mobility and levels of EDD protein", "setting": "EDD-chk2 interaction; MCF-7 nuclear extracts after treatment", "value": "no change in either the mobility or levels of EDD protein"}, {"measurement": "amount of EDD associating with chk2", "setting": "EDD-chk2 interaction", "value": "considerably reduced; also recorded: diminished; also recorded: Decreased association between EDD and CHK2"}, {"measurement": "EDD protein levels", "setting": "EDD-CIB interaction; MCF-7 cells after treatment", "value": "unchanged"}, {"measurement": "association between EDD and CIB", "setting": "EDD-CIB interaction; MCF-7 cells, phleomycin 100 μg/ml 6 h, vs untreated or hydroxyurea-treated cells", "value": "significantly less association between EDD and CIB; also recorded: decrease in the amount of associating EDD"}, {"measurement": "amount of BRCA2 associated with chk2", "setting": "BRCA2-chk2 interaction", "value": "no effect on the amount of BRCA2 associated with chk2"}]}]}
